Patent US7968525B1, “Use of RNA interference to validate new termiticide target sites and a method of termite control” (University of Florida Research Foundation, Inc., priority 2007, dated 2011)

What was measured:
beta glucosidase = settings: in vitro enzyme assays, earlier work; cited from earlier work
termite = settings: bioassays, earlier work; cited from earlier work
exoglucanases = settings: in vitro enzyme assays, earlier work; cited from earlier work
R. flavipes workers [1] = assay: Hex-2 dsRNA feeding bioassay with and without JH (morphology, lethal molts); format: in vivo, Reticulitermes flavipes; settings: feeding on Hex-2 dsRNA alone or JH alone
Procedure: dsRNA Feeding bioassays. dsRNA-mediated gene silencing was accomplished using voluntary feeding bioassays. Termites were pre-starved for 12 h to standardize their hunger status before the assay. The bioassay was run by placing groups of 15 worker termites into 35-mm tissue culture dishes that contained 18 mm diam. treated paper towel disks. Multiple and single dose dsRNA regimes were tested. All assays were carried out for 24-d. Paper disk moisture was monitored every other day. Every 8th day, old paper disks were replaced with new ones. These new paper disks were treated exactly the same as previous ones. Feeding (mg/dish) was determined by comparing weights of paper disks before and after confinement with termites, whereas body weight (mg/termite) was measured by comparing termite weights before and after 8-day paper consumption and then by correcting for the number of live termites at the time of sampling. Paper disks were dried in a drying oven before weighing. Mortality, paper consumption, body weight change, and/or presoldier formation were documented every 8th day. The complete experimental design included two colonies (Colony-1 and -2), with three replicate dishes per treatment per colony.
For Cell-1 dsRNA feeding bioassays, the experimental design included two treatments (triple and single dose Cell-1 dsRNA) and a control (3 doses of dsRNA buffer; Ambion; Austin, Tex.). […]

R. flavipes workers [2] = assay: dsRNA + JH III feeding assay, lethal times by probit analysis; format: in vivo, Reticulitermes flavipes; settings: JH III alone
Procedure: Six additional developmental genes were targeted by combined dsRNA+JH III treatments: broad, farnesoic acid methyl transferase (FAMET-2), two family 15 cytochrome P450s (Cyp15-1, Cyp15-2), and two vitellogenin genes (Vit-1, Vit-2). dsRNAs corresponding to internal 500 base pair fragments of all six genes (see FIG. 22) were prepared as described under “description of the preferred embodiment”. Twenty μg of dsRNA was applied in 50 μL nanopure water to a penny-sized ([…]) paper disk. The disk was placed in a 5 cm tissue culture dish and 15 worker termites were added. Assays ran for 25 days at 60% relative humidity and 27 degrees C., with water being replenished and mortality/presoldier formation scored every 5th day.
LT50 and LT90 were determined from time-mortality data using probit analysis (SAS software; Cary, N.C.). In this context, the terms LT50 and LT90 refer to the estimated times at which 50% and 90% mortality occurs in response to the various RNAi treatments relative to JH III treatments alone (FIG. 23). Applying the six dsRNAs alone had no significant effects on survivorship. The LT50 and LT90 values for JH III alone were 34.5 and 65.7 days, respectively (as a result of fitness costs from elevated presoldier levels).

Compound: OC[C@@H]1[C@@H](O[C@@H]2O[C@H](CO)[C@@H](O)[C@H](O)[C@H]2O)[C@H](O)[C@@H](O)c2nccn21 [CBI, cellobioimidazole]
- inhibition of beta glucosidase activity (beta glucosidase): Good to excellent inhibition
- termite mortality (termite): only moderate termite mortality
- inhibition of exoglucanases activity (exoglucanases): Good to excellent inhibition

Compound: COC(=O)/C=C(\C)CC/C=C(\C)CC[C@H]1OC1(C)C [JH III, juvenile hormone III]
- caste phenotype induced (R. flavipes workers [1]): wildtype caste phenotypes
- LT50 (R. flavipes workers [2]; time to 50% mortality): 34.5 days
- LT90 (R. flavipes workers [2]; time to 90% mortality): 65.7 days

Compound: fluromethyl cellobiose [FMCB]
- inhibition of beta glucosidase activity (beta glucosidase): Good to excellent inhibition
- termite mortality (termite): only moderate termite mortality
- inhibition of exoglucanases activity (exoglucanases): Good to excellent inhibition
